Results published in US20210207099A1, “METHODS AND COMPOSITIONS FOR GENERATING CELLS OF ENDODERMAL LINEAGE AND BETA CELLS AND USES THEREOF” (priority 2018, published 2021).

Tested on: HUES8 cells, hepatic differentiation protocol
Experiment: Liver differentiation with cytoskeletal compounds
Type: cell-based, human
Conditions: 1 μM for the first 24 hours of stage 3
Experimental: For differentiation to other endodermal lineages, HUES8 stem cells were cultured and passaged normally. Differentiations were initiated 24 hours after seeding 24-well plates at 0.521×10^6 cells/cm^2. Protocols for exocrine pancreas, intestine, and liver were adapted, from literature. Either latrunculin A or nocodazole were added as indicated in each protocol. All three differentiation protocols used the same stage 1 to induce endoderm. Stage 1 (4 days): BE1 media+100 ng/mL Activin A+3 μM CHIR99021 for the first 24 hours, followed with 3 days of BE1 containing 100 ng/mL Activin A only.
Liver Differentiation: Stage 2 (2 days): BE2 media+50 ng/mL KGF. Stage 3 (4 days): BE3 media+10 ng/mL bFGF+30 ng/mL BMP4 (R&D Systems, 314-BP). For the first 24 hours only, 2 μM retinoic acid and either 1 μM latrunculin A or 1 μM nocodazole were added. Stage 4 (5 days): BE3 media+20 ng/mL OSM (R&D Systems, 295-OM)+20 ng/mL HGF (R&D Systems, 294-HG)+100 nM dexamethasone (MilliporeSigma, D4902).

## C/C1=C/C(=O)O[C@@H]2C[C@@H](CC[C@H](C)/C=C\C=C\CC1)O[C@@](O)([C@@H]1CSC(=O)N1)C2 [latrunculin A]
  hepatocyte gene expression: increased hepatocyte gene expression
  immunostaining for AFP: more prevalent with latrunculin A treatment
